Assay results from PMC10054634, “Chemical Constituents of Thesium chinense Turcz and Their In Vitro Antioxidant, Anti-Inflammatory and Cytotoxic Activities” (Molecules, 2023).
Entries after “also recorded” stand apart in the source; their conditions may differ. Like-named read-outs stand apart in the source and are kept apart here.

Experiments:
[1] = DPPH radical scavenging assay; conditions: for SC50: concentration required for 50% reduction of DPPH radicals, 37 °C, 30 min, 517 nm, nc = SC50 cannot be calculated due to weak or no related activities; for antioxidant activity on DPPH radical scavenging (in words): compared with positive control ascorbic acid
Method: The 2, 2-diphenyl-1-picrylhydrazyl (Aldrich Chem. Co. Ltd, Shanghai, China) radical scavenging activity assay was performed according to the previously published method with some modification. Test samples were dissolved in MeOH to six different concentrations ranging from 3.125 to 100 μM. Then, 100 μL of 100 μM DPPH in MeOH were mixed with 100 μL of samples at different concentrations in the wells of 96-well plates. The reaction mixtures were incubated in the dark at 37 °C for 30 min and then measured at 517 nm. Ascorbic acid was used as the positive control. The scavenging activity (SC) was estimated as follows: % SC = [1 − (Asample − Ablank)/Acontrol] ×100. Asample was the equivalent mixture of test sample and DPPH solution. Ablank was the equivalent mixture of test sample and MeOH solution. Acontrol was the equivalent mixture of DPPH and MeOH solution. The SC50 values were used to evaluate the antioxidant activities of isolated compounds. The experiments were performed in triplicate, and the data were expressed as the means ± SD of three independent experiments.

[2] = test system: NO production in LPS-activated RAW 264.7 cells; assay: Inhibition of NO production in LPS-activated RAW 264.7 cells (Griess reaction); assay type: cell-based; conditions: Mus musculus, read-out: IC50 (NO inhibitory activity)
Method: The macrophage RAW 264.7 cells were obtained from the Cell Bank of the Chinese Academy of Sciences (Shanghai, China). A total of 180 μL of RAW 264.7 cells (1 × 10^4) were plated respectively in each well of 96-well plate and cultured for 24 h, then the supernatant of the culture was discarded and 180 μL complete medium with 1 μg/mL LPS and different concentrations of test samples were added into triplicate wells for 24 h. The inhibition effects on LPS-stimulated NO production was evaluated by the Griess reaction assay. The experiments were performed in triplicate, and the data were expressed as the means ± SD of three independent experiments.

A549 = assay: Cytotoxic assay (CCK-8), A549; assay type: cell-based, human; conditions: A549, 48 h, mean ± SD (n = 3)
Method: (§1) Four human cancer cell lines, A549, NCI-H292, SiHa and MKN45, were purchased from the Cell Bank of the Chinese Academy of Sciences (Shanghai, China). […] Cisplatin (Abmole Bioscience, Shanghai, China) was used as positive control.
(§2) A total of 180 μL of cancer cells (5 × 10^3) were plated in each well of 96-well plates and cultured for 24 h, then the supernatant of the culture was discarded and 180 μL complete medium with different concentrations of test samples were added into triplicate wells of each cell line, respectively. Thereafter, A549, NCI-H292, SiHa and MKN45 were incubated for 48 h, respectively. The cell viability was evaluated by Cell Counting Kit-8 (CCK-8, Best Bio., Beijing, China), respectively. The experiments were performed in triplicate, and the data were expressed as the means ± SD of three independent experiments.

NCI-H292 = assay: Cytotoxic assay (CCK-8), NCI-H292; assay type: cell-based, human; conditions: NCI-H292, 48 h, mean ± SD (n = 3)
Method: as §1, §2

SiHa = assay: Cytotoxic assay (CCK-8), SiHa; assay type: cell-based, human; conditions: 48 h, mean ± SD (n = 3)
Method: as §1, §2

MKN45 = assay: Cytotoxic assay (CCK-8), MKN45; assay type: cell-based, human; conditions: mean ± SD (n = 3)
Method: as §1, §2

[3] = Cytotoxicity in RAW 264.7 cells (CCK-8); conditions: mouse
Method: The cell viability was determined by the CCK-8 assay method. The cytotoxicity was calculated from the plotted results using untreated cells at 100%.

[4] = RAW264.7, RAW 264.7, 1 μg/mL LPS, 24 h, mean ± SD (n = 3)
[5] = Homo sapiens, MKN-45, MKN45, 48 h

Row | IC50 [2, 4] | Molecule | SC50 [1] | SC50 ([1]; listed as ascorbic acid) | IC50 (A549; Homo sapiens) | IC50 (NCI-H292; Homo sapiens) | IC50 (SiHa; Homo sapiens) | IC50 (MKN45; [5]) | IC50 [3] | IC50 (A549) | IC50 (NCI-H292) | IC50 (MKN45; MKN45, 48 h) | antioxidant activity on DPPH radical scavenging (in words) [1] | IC50 ([2]; RAW264.7, 24 h) | IC50 (SiHa)
1 | > 200 µM | OCC1OC(OC2C(OCCc3ccccc3)OC(CO)C(O)C2O)C(O)C(O)C1O (stereo not drawn) [Compound 8, phenethyl alcohol β-sophoroside] |  |  | > 200 µM | > 200 µM | > 200 µM | > 200 µM | > 200 µM |  |  |  |  |  | 
2 | > 200 µM | COc1cc(C(O)C(CO)Oc2c(OC)cc(C3OCC4C(c5ccc(OC6OC(CO)C(O)C(O)C6O)c(OC)c5)OCC34)cc2OC)ccc1O (stereo not drawn) [Compound 9, samsesquinoside] | 47.3 ± 2.3 µM |  | > 200 µM | > 200 µM | > 200 µM | > 200 µM | > 200 µM |  |  |  |  |  | 
3 | > 200 µM | COc1cc(C2OCC3C(c4ccc(OC5OC(CO)C(O)C(O)C5O)c(OC)c4)OCC23)ccc1O [Compound 10, pinoresinol-4-O-D-glucoside] | 30.5 ± 6.5 µM |  | > 200 µM | > 200 µM | > 200 µM | > 200 µM | > 200 µM |  |  |  |  |  | 
4 | > 200 µM | COc1cc(C2Oc3c(OC)cc(CCCO)cc3C2CO)ccc1OC1OC(CO)C(O)C(O)C1O [Compound 12, dihydrodehydro diconiferyl alcohol 4-O-β-D-glucoside] |  |  | > 200 µM | > 200 µM | > 200 µM | > 200 µM | > 200 µM |  |  |  |  |  | 
5 | > 200 µM | COC/C=C/c1cc(OC)c2c(c1)[C@H](CO)[C@H](c1ccc(O[C@@H]3O[C@H](CO)[C@@H](O)[C@H](O)[C@H]3O)c(OC)c1)O2 [Compound 13, (7S, 8R) 9′-methoxy-dehydrodiconiferyl alcohol 4-O-β-D-glucopyranoside] |  |  | > 200 µM | > 200 µM | > 200 µM | > 200 µM | > 200 µM |  |  |  |  |  | 
6 | > 200 µM | COc1cc([C@@H](O)[C@@H](CO)Oc2c(OC)cc(/C=C/CO)cc2OC)cc(OC)c1O[C@@H]1O[C@H](CO)[C@@H](O)[C@H](O)[C@H]1O [Compound 14, picraquassioside C] |  |  | > 200 µM | > 200 µM | > 200 µM | > 200 µM | > 200 µM |  |  |  |  |  | 
7 | > 200 µM | COc1cc([C@H](O)[C@@H](CO)Oc2ccc(/C=C/CO)cc2OC)ccc1O[C@@H]1O[C@H](CO)[C@@H](O)[C@H](O)[C@H]1O [Compound 15, citrusin A] |  |  | > 200 µM | > 200 µM | > 200 µM | > 200 µM | > 200 µM |  |  |  |  |  | 
8 | > 200 µM | COc1cc([C@H](O)[C@@H](CO)Oc2c(OC)cc(/C=C/CO)cc2OC)ccc1O[C@@H]1O[C@H](CO)[C@@H](O)[C@H](O)[C@H]1O [Compound 16, citrusin B] |  |  | > 200 µM | > 200 µM | > 200 µM | > 200 µM | > 200 µM |  |  |  |  |  | 
9 | > 200 µM | COc1cc(C(O)C(CO)Oc2c(OC)cc(C(O)C(O)CO)cc2OC)ccc1O (stereo not drawn) [Compound 17, (erythro, erythro)-1-[4-[2-hydroxy-2-(4-hydroxy-3-methoxy-phenyl)-1-(hydroxymethyl)ethoxy]-3,5-dimethoxyphenyl]-1,2,3-propanetriol] |  |  | > 200 µM | > 200 µM | > 200 µM | > 200 µM | > 200 µM |  |  |  | moderate activity |  | 
10 | > 200 µM | O=C(O)/C=C/c1ccc(O)cc1 [Compound 22, p-coumaric acid] |  |  | > 200 µM | > 200 µM | > 200 µM | > 200 µM | > 200 µM |  |  |  |  |  | 
11 | > 200 µM | COc1cc(/C=C/CO)ccc1O[C@@H]1O[C@H](CO)[C@@H](O)[C@H](O)[C@H]1O [Compound 25, coniferin] |  |  | > 200 µM | > 200 µM | > 200 µM | > 200 µM | > 200 µM |  |  |  |  |  | 
12 | 11.1 ± 1.4 µM | O=c1c(O)c(-c2ccc(O)c(O)c2)oc2cc(O)cc(O)c12 [Quercetin, reference compound] |  |  |  |  |  |  | > 50 µM |  |  |  |  |  | 

Further lines, the molecule ahead of its results:

Row | Molecule | IC50 [2, 4] | SC50 [1] | SC50 ([1]; listed as ascorbic acid) | IC50 (A549; Homo sapiens) | IC50 (NCI-H292; Homo sapiens) | IC50 (SiHa; Homo sapiens) | IC50 (MKN45; [5]) | IC50 [3] | IC50 (A549) | IC50 (NCI-H292) | IC50 (MKN45; MKN45, 48 h) | antioxidant activity on DPPH radical scavenging (in words) [1] | IC50 ([2]; RAW264.7, 24 h) | IC50 (SiHa)
13 | O=C1O[C@H]([C@@H](O)CO)C(O)=C1O [Ascorbic acid, reference compound] |  | 15.6 ± 0.8 µM | 15.5 ± 0.8 µM |  |  |  |  |  |  |  |  |  |  | 
14 | OCCc1ccc(O)c(O[C@@H]2O[C@H](CO)[C@@H](O)[C@H](O)[C@H]2O[C@@H]2O[C@H](CO)[C@@H](O)[C@H](O)[C@H]2O)c1 [Compound 2, 3,4-dihydroxyphenethyl alcohol 3-O-β-D-glucopyranosyl (1→2)-β-D-glucopyranoside] | > 200 µM |  |  | > 200 µM | > 200 µM | > 200 µM | > 200 µM | > 200 µM |  |  |  |  |  | 
15 | CC/C=C\CCO[C@@H]1O[C@H](CO)[C@@H](O)[C@H](O)[C@H]1O[C@@H]1O[C@H](CO)[C@@H](O)[C@H](O)[C@H]1O [Compound 3, (Z)-hex-3-ene 3-O-β-D-glucopyranosyl (1→2)-β-D-glucopyranoside] | > 200 µM |  |  | > 200 µM | > 200 µM | > 200 µM | > 200 µM | > 200 µM |  |  |  |  |  | 
16 | C[C@]12CC[C@H](O)C[C@@]1(O)CCC1C2CC[C@]2(C)[C@@H](C3=CC(=O)OC3)CC[C@]12O (stereo partly drawn) [Compound 4, perlplogemn] |  |  |  |  |  |  |  |  | 17.4 ± 2.4 µM | 22.2 ± 1.1 µM | 9.5 ± 0.7 µM |  |  | 
17 | CO[C@H]1C[C@H](OC2CC[C@]3(C)C4CC[C@]5(C)[C@@H](C6=CC(=O)OC6)CC[C@]5(O)C4CC[C@]3(O)C2)O[C@H](C)[C@H]1O[C@@H]1O[C@H](CO)[C@@H](O)[C@H](O)[C@H]1O (stereo partly drawn) [Compound 5, periplocin] | > 200 µM |  |  | < 0.1 µM | < 0.1 µM | < 0.1 µM | < 0.1 µM | > 200 µM |  |  |  |  |  | 
18 | OCCc1cc(O)cc(O[C@@H]2O[C@H](CO)[C@@H](O)[C@H](O)[C@H]2O)c1 [Compound 7, 3,5-dihydroxyphenethyl alcohol 3-O-β-D-glucopyranoside] | > 200 µM | 255.2 ± 12.6 µM |  | > 200 µM | > 200 µM | > 200 µM | > 200 µM | > 200 µM |  |  |  | weak antioxidant activities; also recorded: weak activity |  | 
19 | COc1cc(C2OCC3C(c4cc(OC)c(OC5OC(CO)C(O)C(O)C5O)c(OC)c4)OCC23)cc(OC)c1O [Compound 11, syringaresinol-4′-O-β-D-glucopyranoside] | > 200 µM | 16.2 ± 1.6 µM |  | > 200 µM | > 200 µM | > 200 µM | > 200 µM | > 200 µM |  |  |  |  |  | 
20 | COc1cc(/C=C/CO)cc(OC)c1O[C@@H]1O[C@H](CO)[C@@H](O)[C@H](O)[C@H]1O [Compound 24, syringin] |  |  |  | > 200 µM | > 200 µM | > 200 µM | > 200 µM | > 200 µM |  |  |  |  | > 200 µM | 
21 | COc1cc(/C=C/C=O)cc(OC)c1O[C@@H]1O[C@H](CO)[C@@H](O)[C@H](O)[C@H]1O [Compound 29, sinapaldehyde glucoside] |  |  |  | > 200 µM | > 200 µM | > 200 µM | > 200 µM | > 200 µM |  |  |  |  | > 200 µM | 
22 | N.N.[Cl][Pt][Cl] [cisplatin, reference compound] |  |  |  |  |  |  |  |  | 19.5 ± 6.7 µM | 52.8 ± 5.3 µM | 7 ± 0.3 µM |  |  | 7 ± 0.7 µM
23 | scopoletin [Compound 28] |  |  |  |  |  |  |  |  | > 200 µM | > 200 µM | 52.8 ± 5.3 µM |  |  | > 200 µM
